Measurements taken from ChEMBL document CHEMBL3271949, “Drugs derived from cannabinoids. 3. Sulfur analogs, thiopyranobenzopyrans and thienobenzopyrans” (J Med Chem, 1976).
Calls of active or inactive are those of the source.

Columns and labels:
Mus musculus [1] = assay: Antidepressant activity in mouse assessed as potentiation of (+/-)-dopa-induced motor responses at 5 mg/kg, po administered 4 hrs before dopa challenge; assay type: functional, organism-based; parameters: dose 5 mg/kg
Mus musculus [2] = assay: Tranquilizer activity in albino BALB/cJ mouse assessed as reduction in footshock-induced fighting behavior at 5 mg/kg, po after 90 mins; assay type: functional; parameters: scale not given: the % may be the effect or the level left
Mus musculus [3] = assay: Tranquilizer activity in albino BALB/cJ mouse assessed as reduction in footshock-induced fighting behavior at 10 mg/kg, po after 90 mins; assay type: functional; parameters: scale not given: the % may be the effect or the level left
Rattus norvegicus [4] = assay: Spontaneous motor activity in Long-Evans rat at 5 mg/kg measured up to 2 hrs relative to control; assay type: functional
Mus musculus [5] = assay: Antinociceptive activity in po dosed mouse assessed as inhibition of acetic acid-induced writhing administered 30 mins before acetic acid challenge measured after 5 to 20 mins; assay type: functional
Mus musculus [6] = species: Mus musculus; assay: Analgetic activity in mouse by hot-plate test; assay type: functional
Canis familiaris [7] = assay: Toxicity in beagle-like dog assessed as reduced reactivity with ataxia observed for 24 hrs at 0.1 mg/kg, po single dose; assay type: organism-based, Canis lupus familiaris; parameters: dose 0.1 mg/kg, route oral; conditions: in vivo
[8] = Toxicity in po dosed mouse; assay type: organism-based; conditions: in vivo
Rattus norvegicus [9] = assay: Antihypertensive activity in spontaneous hypertensive rat assessed as reduction of blood pressure at 10 mg/kg, po after 4 hrs; assay type: functional; parameters: scale not given: the % may be the effect or the level left
Rattus norvegicus [10] = assay: Antihypertensive activity in spontaneous hypertensive rat assessed as reduction of blood pressure at 10 mg/kg, po after 24 hrs; assay type: functional; parameters: scale not given: the % may be the effect or the level left
Felis catus = assay: Sedative-hypnotic activity in po dosed cat assessed as rapid eye movement sleep; assay type: functional, organism-based
Rattus norvegicus [11] = assay: Spontaneous motor activity in Long-Evans rat at 10 mg/kg measured up to 2 hrs relative to control; assay type: functional
Canis familiaris [12] = assay: Toxicity in beagle-like dog assessed as reduced reactivity with ataxia observed for 24 hrs at 10 mg/kg, po single dose; assay type: organism-based, Canis lupus familiaris; parameters: dose 10 mg/kg, route oral; conditions: in vivo
Rattus norvegicus [13] = assay: Analgetic activity in po dosed Sprague-Dawley rat assessed as pain threshold after 15 to 90 mins by tail-flick test; assay type: functional
Canis familiaris [14] = assay: Toxicity in beagle-like dog assessed as reduced reactivity with ataxia observed for 24 hrs at 1 mg/kg, po single dose; assay type: organism-based, Canis lupus familiaris; parameters: dose 1 mg/kg, route oral; conditions: in vivo
Rattus norvegicus [15] = assay: Antihypertensive activity in spontaneous hypertensive rat assessed as reduction of blood pressure at 10 mg/kg, po after 48 hrs; assay type: functional; parameters: scale not given: the % may be the effect or the level left

| SMILES | Activity (Mus musculus [1]) | Activity (Mus musculus [2]) [%] | Activity (Mus musculus [3]) [%] | Activity (Rattus norvegicus [4]) [%] | ED50 (Mus musculus [5]) [mg/kg] | ED50 (Mus musculus [6]) [mg/kg] | Activity (Canis familiaris [7]) | LD50 [8] [mg/kg] | Activity (Rattus norvegicus [9]) [%] | Activity (Rattus norvegicus [10]) [%] | Activity (Felis catus) | Activity (Rattus norvegicus [11]) [%] | Activity (Canis familiaris [12]) | ED50 (Rattus norvegicus [13]) [mg/kg] | Activity (Canis familiaris [14]) | Activity (Rattus norvegicus [15]) [%] |
| --- | --- | --- | --- | --- | --- | --- | --- | --- | --- | --- | --- | --- | --- | --- | --- | --- |
| CCCCCC(C)C(C)c1cc(O)c2c(c1)OC(C)(C)C1=C2CCS1 (stereo unspecified) | Active | 1 | 33 | 1 | 71.8 | 12.1 | Toxic | > 300 | 17 | 2 | Active | – | – | – | – | – |
| CCCCCC(C)C(C)c1cc(OC(=O)C(C)CCN2CCOCC2)c2c(c1)OC(C)(C)C1=C2CCCS1.Cl.O (stereo unspecified) | Active | – | 66 | 1 | 22.6 | – | – | > 300 | – | – | inactive | – | – | – | – | – |
| CCCCCC(C)C(C)c1cc(O)c2c(c1)OC(C)(C)C1=C2CCSC1 (stereo unspecified) | Active | 1 | – | – | > 40 | > 40 | – | > 300 | – | – | – | 1 | Toxic | – | – | – |
| CCCCCC(C)C(C)c1cc(O)c2c(c1)OC(C)(C)C1=C2CCCS1 (stereo unspecified) [TINABINOL] | Active | – | 1 | 1 | 8.6 | 5.7 | – | > 300 | 15 | 28 | inactive | – | – | 2.7 | Toxic | 19 |
| CCCCCC(C)C(C)c1cc(OC(=O)CCCN2CCOCC2)c2c(c1)OC(C)(C)C1=C2CCS1.Cl (stereo unspecified) | Active | 1 | 33 | 1 | – | > 50 | – | > 300 | – | – | – | – | – | – | Non-toxic | – |
| CCCCCC(C)C(C)c1cc(OC(=O)CCCN2CCCCC2)c2c(c1)OC(C)(C)C1=C2CCS1.Cl (stereo unspecified) | Active | – | 33 | 1 | 24 | – | – | > 300 | – | – | – | – | – | – | Non-toxic | – |
| CCCCCC(C)C(C)c1cc(O)c2c(c1)OC(C)(C)C1=C2CSC1 (stereo unspecified) | Active | – | 33 | 1 | 51.7 | > 120 | – | > 300 | – | – | – | – | Toxic | – | – | – |
| CCCCCC(C)C(C)c1cc(OC(=O)CCCN2CCCCC2)c2c(c1)OC(C)(C)C1=C2CCCS1.Cl (stereo unspecified) | Active | 1 | – | 66 | 14.7 | – | – | > 300 | – | – | – | – | – | – | – | – |
| CCCCCC(C)C(C)c1cc(O)c2c(c1)OC(C)(C)c1sccc1-2 (stereo unspecified) | Active | – | 1 | 1 | > 10 | – | – | > 300 | – | – | – | – | – | – | – | – |
